Patent publication US5905090A, “Analogues of the active metabolite of leflunomide” (Italfarmaco S.p.A., priority 1998, dated 1999)

Assays:
[1] = system: murine splenocytes (BALB/c and DBA/2 mice); assay: Mixed lymphocyte reaction (MLR), bi-directional, [3H]-thymidine proliferation; format: cell-based, murine (BALB/c and DBA/2 mice); settings: Mus musculus, Splenocyte, 96 hours
Experimental: Mixed lymphocyte reaction (MLR).
Bi-directional MLR was carried out using murine cells. Splenocytes were prepared from BALB/c and DBA/2 mice (18-20 g) Charles River, Calco, Italy). Briefly, single cell suspensions were isolated from spleen by Ficoll-Hypaque (biochrom, Berlin, Germany) density gradient centrifugation. 5×10^4 splenocytes from each preparation was cultured for 96 hours in triplicate in 96-well round-bottom plates (Nunc, Roskilde, Denmark), in the absence or presence of serial dilutions of the tested compounds. All compounds were dissolved in dimethyl sulfoxide (DMSO) to a final 20 mM concentration and then diluted into the culture medium used for the cell assay. To take into account a possible interference from DMSO, each experiment included a control in which the DMSO concentration was made equal to those of compound-treated cultures. Culture medium used was RPMI 1640 (Biochrom, Berlin, Germany), supplemented with 5% foetal bovine serum (Hyclone Laboratories Inc., Logan, Utah), 50 μm 2-mercaptoethanol, 2 mM L-glutamine, 0.1 mM non-essential amino acids, 1 mM sodium pyruvate, 100 IU/ml penicillin, and 100 μg/ml streptomycin. During the last 18 hours of culture, cells were pulsed with 1 μCi of [^3 H]-thymidine (Amersham, UK) and then harvested onto glass fiber filters by means of a cell harvester. Radioacivity, proportional to proliferation, was measured with a β-counter.

CD2 = assay: Inhibition of lymphocyte activation antigens expression: CD2 (OKT3-stimulated PBMC, flow cytometry); format: cell-based; settings: human PBMC, 24 hr
Experimental: (§1) Inhibition of lymphocyte activation antigens expression.
(§2) Human peripheral blood mononuclear cells (PBMC) from healthy donors were separated by Ficoll-Hypaque density-gradient centrifugation. The cells recovered were suspended in culture medium (RPMI 1640 supplemented with 10% foetal bovine serum, 2 mM L-glutamine, 100 IU/ml penicillin and 100 μg/ml streptomycin).
(§3) PBMC, suspended at a density of 10^6 cells/ml in culture medium, were incubated in 24-well plates (Costar, Cambridge, Mass.) with the tested compounds and, 30 min later, stimulated with optimal concentration of the monoclonal antibodies OKT3 (Ortho Diagnostic Inc., Raritan, N.J.) for 24 hr at 37° C. and under 5% CO2. At the end of incubation, cells were washed twice with PBS containing 2% human serum (Irvine Scientific, Irvine, Calif.) and then incubated with fluorescein isothiocyanate (FITC)-conjugated monoclonal antibodies (Mab) for 30 min on ice. Cells were then washed as above and fluorescence analysis was performed by flow-cytometry on a FACScan (Becton-Dickinson, Mountain View, Calif.). The Mabs used were anti-Leu5b (CD2), anti-Interleukin-2 receptor (CD25) and anti transferrin receptor (CD71). Fluorescence background was determined by incubating the cells with FITC-conjugated mouse IgG of the relevant isotype. Forward- and right-angle scatter were set in order to include lymphocytes and lymphoblasts. The results, expressed as percentage of inhibition of mean fluorescence (MF), were calculated as follows: [formula]

CD71 = assay: Inhibition of lymphocyte activation antigens expression: CD71 (OKT3-stimulated PBMC, flow cytometry); format: cell-based; settings: human PBMC, 24 hr
Experimental: as §1, §2, §3

CD25 = assay: Inhibition of lymphocyte activation antigens expression: CD25 (OKT3-stimulated PBMC, flow cytometry); format: cell-based; settings: human PBMC, 24 hr
Experimental: as §1, §2, §3

[2] = system: adjuvant arthritis (complete Freund's adjuvant); assay: Adjuvant arthritis in the rat; format: in vivo, rat (male Lewis); settings: p.o. daily
[3] = system: antigen-induced paw edema (KLH-immunised BALB/c mice); assay: Antigen-induced paw edema in the mouse; format: in vivo, mouse (female BALB/c); settings: daily day 0 to day 13, 8 hours after challenge
Experimental: Antigen-induced paw edema in the mouse.
Groups of 4-8 female BALB/c mice (20-22 g; Charles River, Calco, Italy) were immunised at days 0 and 7 with two s.c. injections, of keyhole limpet hemocyanin (KLH, 100 μg/mouse; Sigma Chemicals, S. Louis, Mo.) emulsified in 0.2 ml complete Freund's adjuvant (CFA, Sigma Chemicals, S. Louis, Mo.). Non-immunised mice (Control) were treated with CFA alone. On day 14, immunised mice were challenged in the hind footpad with 20 μg KLH suspended in physiological solution. Eight hours after antigen challenge the edema was quantified measuring the dorsal-ventral thickness of the footpad with a scientific micrometer (Borletti, Italy). To evaluate their immunosuppressive activity, the compounds were administered daily from day 0 to day 13.

| Compound | IC50 [1] [µM] | IC50 (CD2) [µM] | IC50 (CD71) [µM] | IC50 (CD25) [µM] | Inhibition (%) of arthritis score ([2]; Day 14) [%] | Arthritis score ([2]; Day 14, vehicle score 3.6 ± 0.5) | Inhibition (%) of arthritis score ([2]; Day 17) [%] | Arthritis score ([2]; Day 17, vehicle score 4.8 ± 0.4) | Inhibition (%) of arthritis score ([2]; Day 21) [%] | Arthritis score ([2]; Day 21, vehicle score 4.8 ± 0.6) | Percentage of inhibition of edema formation ([3]; 10 mg/Kg i.p.) [%] | Percentage of inhibition of edema formation ([3]; 10 mg/Kg p.o.) [%] |
| --- | --- | --- | --- | --- | --- | --- | --- | --- | --- | --- | --- | --- |
| CC(O)=C(C(=O)Nc1ccc(C(F)(F)F)cc1)C(=O)Nc1ccc(C(F)(F)F)cc1 [Example 1, N-(4-trifluoromethylphenyl)-2-(4-trifluoromethylphenylcarbamoyl)-3-hydroxybut-2-enamide] | 11.9 ± 0.1 | 15.3 | 18.8 | 18.4 | – | – | – | – | – | – | – | – |
| O=C(Nc1ccc(C(F)(F)F)cc1)C1=C(O)COC1=O [Example 2, N-(4-trifluoromethylphenyl)-4-hydroxy-2-oxo-(5H)-furan-3-carboxamide] | 3.4 ± 1.1 | 13.8 | 66.5 | 14.8 | – | – | – | – | – | – | – | – |
| O=C1CCC(O)=C1C(=O)Nc1ccc(C(F)(F)F)cc1 [Example 3] | 1.25 ± 0.2 | 2.9 | 11 | 2.9 | 42 | 2.1 ± 0.1 | 46 | 2.6 ± 0.1 | 19 | 3.9 ± 0.2 | – | – |
| O=C1CCCC(O)=C1C(=O)Nc1ccc(C(F)(F)F)cc1 [Example 4] | 45.9 ± 29.5 | 95.4 | > 100 | > 100 | – | – | – | – | – | – | – | – |
| O=C(Nc1ccc(C(F)(F)F)cc1)c1ccccc1O [Example 5, N-(4-trifluoromethylphenyl)-2-hydroxy-benzamide] | 1.65 ± 0.1 | 3 | 4.4 | 2.4 | – | – | – | – | – | – | 37 | – |
| Cc1oncc1C(=O)Nc1ccc(C(F)(F)F)cc1 [Leflunomide, 5-methyl-N-(4-trifluoromethylphenyl)isossazole-4-carboxamide] | 9.6 ± 3.1 | 126 | > 100 | 130 | – | – | – | – | – | – | – | 43 |
